pIC50: −log10 of the molar value.

In one experiment the target is T1, human EP4 (EP4R) (Homo sapiens, UniProt P35408).
T1 construct: Cayman Chemical (Human EP4 Reporter Assay Kit)
Nature of the experiment: EP4 antagonist assay (HEK-293 CNG membrane potential cAMP assay / 293T SEAP reporter assay, PGE2-stimulated). To be noted: EP4 antagonist activity; concentration for inhibition of signal compared to DMSO. It is filed as cell-based. The source says: 1. The HEK-293 CNG (Cyclic Nucleotide Gated) cell line expressing a modified CNG channel that leads to cell membrane depolarization in response to elevated intracellular cAMP levels, which can be measured using a fluorescent membrane potential dye, was engineered to express human EP2 (PTGER2) or EP4 (EP4R). The resulting cell line ACTOne™ PTGER2 or ACTOne™ EP4R as well as the fluorescent membrane potential dye were purchased from eEnzyme (Gaithersburg, MD, US) and used in this assay. Briefly, cells were plated at 1.2×10^4 cells/well in 20 μL DMEM supplemented with 2% Fetal Bovine Serum (FBS, VWR International), 1x Penicillin/Streptomycin (GenClone), 0.2 μg/mL puromycin (InvivoGen) and 50 μg/mL G418 (InvivoGen) on a 384 well plate (Greiner). The next day, cells were dye-loaded with 20 μL/well of 1x Dye-loading solution (eENZYME) following the manufacturer's instruction. After 2 hours of incubation at room temperature (RT) in the dark, a pre-read was made to obtain the background signals using CLARIOstar plate reader (BMG LABTECH, Germany) with the following filter settings: excitation=530/20 nm, emission=590/20 nm. Next, a serial dilution of compound (plus a DMSO control) were added to the plate (5 μL/well) and the reaction was incubated at RT for 15 min before adding 5 μL of PGE2 to every well for a final concentration of 5 nM. All wells were duplicated. The plate was then further incubated at RT for 30 min prior to a final read with the same machine settings. Background-subtracted signals were used to calculate IC50 values.
2. Human EP2 and EP4 Reporter Assay Kits were purchased from Cayman Chemical (Ann Arbor, MI, USA). The assay was performed following the provided User Manual. Briefly, a reverse transfection was performed by seeding 6.0×10^4 of 293T cells (ATCC) to each well of the provided Strip Plate coated with a proprietary transfection complex containing DNA constructs for expressing human EP2 or EP4 and a cAMP response element regulated secreted alkaline phosphatase (SEAP) reporter, in 200 μL DMEM supplemented with 2% FBS and incubated for 20-24 hours at 37° C. with 5% CO2. After the incubation, the culture medium was carefully removed, and the cells were replenished with 150 μL pre-warmed serum-free medium. PGE2 and test compounds were prepared together at 4x the desired final concentration, and 50 μL was added to each assigned well with the final concentration of 13 nM and 2 nM PGE2 for EP2 and EP4 assay, respectively. After 6-8 hours of incubation, 10 μL media from each well was transferred to corresponding well of a new plate, which was then sealed and incubated at 65° C. for 30 min. The plate was then cooled down to RT and 50 μL SEAP substrate was added to each well. Luminescence signal was measured using a CLARIOstar plate reader.
The IC50 value was determined as the concentration for […] inhibition of signal compared to DMSO (A: IC50≤100 nM; B: IC50 between 100 nM and 1,000 nM; C: IC50≥1,000 nM).
Background: Cyclic AMP is a second messenger, typically raised through Gs and lowered through Gi signalling.

The next experiment addresses T2, human EP2 (PTGER2) (Homo sapiens, UniProt P43116).
T2 construct: Cayman Chemical (Human EP2 Reporter Assay Kit)
Nature of the experiment: EP2 antagonist assay (HEK-293 CNG membrane potential cAMP assay / 293T SEAP reporter assay, PGE2-stimulated). The conditions noted are these: EP2 antagonist activity; concentration for 50% inhibition of signal compared to DMSO. The format is cell-based. In short, it runs like this: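 HEK-293 CNG cells expressing human EP2: compound preincubated 15 min at RT, then PGE2 at 5 nM final, 30 min; membrane-potential dye fluorescence (ex 530, em 590 nm), background-subtracted, gave IC50. Alternatively, 293T cells reverse-transfected with EP2 and CRE-SEAP, compound plus 13 nM PGE2 for 6-8 h, SEAP luminescence.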

T2 sequence (P43116 whole entry): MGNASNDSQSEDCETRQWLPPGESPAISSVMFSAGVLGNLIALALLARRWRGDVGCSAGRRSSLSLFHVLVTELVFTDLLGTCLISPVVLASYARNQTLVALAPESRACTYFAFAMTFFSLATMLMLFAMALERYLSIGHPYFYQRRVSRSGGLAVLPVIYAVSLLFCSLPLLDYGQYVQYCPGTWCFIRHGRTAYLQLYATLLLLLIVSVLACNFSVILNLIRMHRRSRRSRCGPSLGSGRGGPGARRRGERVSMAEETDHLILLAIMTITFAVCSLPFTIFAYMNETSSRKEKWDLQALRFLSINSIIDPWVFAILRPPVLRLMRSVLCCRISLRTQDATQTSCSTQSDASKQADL
T1 sequence (P35408 whole entry): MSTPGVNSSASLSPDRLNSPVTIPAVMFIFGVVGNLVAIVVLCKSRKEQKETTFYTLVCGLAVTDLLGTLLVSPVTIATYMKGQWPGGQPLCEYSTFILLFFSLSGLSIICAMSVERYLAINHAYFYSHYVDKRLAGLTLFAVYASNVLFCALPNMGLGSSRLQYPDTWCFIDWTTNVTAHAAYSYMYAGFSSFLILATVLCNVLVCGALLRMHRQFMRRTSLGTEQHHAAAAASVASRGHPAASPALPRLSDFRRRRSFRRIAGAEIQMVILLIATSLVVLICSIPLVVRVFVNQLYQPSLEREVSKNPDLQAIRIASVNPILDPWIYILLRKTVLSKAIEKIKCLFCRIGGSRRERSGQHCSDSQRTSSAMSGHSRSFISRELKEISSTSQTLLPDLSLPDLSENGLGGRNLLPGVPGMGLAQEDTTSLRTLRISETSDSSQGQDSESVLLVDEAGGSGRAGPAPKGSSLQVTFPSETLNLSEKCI

The pIC50 is the negative decadic logarithm of the IC50, by convention in mol/L. Read a low pIC50 as a high IC50. For the molecule `O=C(O)c1ccc(CNC(=O)c2cc(-c3ccc(F)cc3)cc3ccn(Cc4ccc(C(F)(F)F)cc4)c23)cc1` [Example 1, 4-((5-(4-fluorophenyl)-1-(4-(trifluoromethyl)benzyl)-1H-indole-7-carboxamido)methyl)benzoic acid], the negative logarithm of the IC50 (pIC50) is at least 7.00 at human EP4 (EP4R) and above 7.00 against human EP2 (PTGER2).

Consider `O=C(O)c1ccc(CNC(=O)c2cc(-c3ccccc3)cc3ccn(Cc4ccc(C(F)(F)F)cc4)c23)cc1` [Example 2, 4-((5-phenyl-1-(4-(trifluoromethyl)benzyl)-1H-indole-7-carboxamido)methyl)benzoic acid], for which the pIC50 against human EP4 (EP4R) was at least 7.00; on human EP2 (PTGER2), above 7.00.

For the molecule `N#Cc1cccc(-c2cc(C(=O)NCc3ccc(C(=O)O)cc3)c3c(ccn3Cc3ccc(C(F)(F)F)cc3)c2)c1` [Example 7, 4-((5-(3-cyanophenyl)-1-(4-(trifluoromethyl)benzyl)-1H-indole-7-carboxamido)methyl)benzoic acid], the pIC50 at human EP4 (EP4R) is at least 7.00; against human EP2 (PTGER2) it was above 7.00.

In the case of `O=C(O)c1ccc(CNC(=O)c2cc(-c3cc(F)cc(F)c3)cc3ccn(Cc4ccc(C(F)(F)F)cc4)c23)cc1` [Example 9, 4-((5-(3,5-difluorophenyl)-1-(4-(trifluoromethyl)benzyl)-1H-indole-7-carboxamido)methyl)benzoic acid], the negative-log IC50 (pIC50) against human EP4 (EP4R) is at least 7.00; on human EP2 (PTGER2) it was above 7.00.

For the molecule `O=C(O)c1ccc(C2(NC(=O)c3ccc(Nc4ccccc4)c4ccn(Cc5ccc(C(F)(F)F)cc5)c34)CC2)cc1` [Example 44, 4-(1-(4-(phenylamino)-1-(4-(trifluoromethyl)benzyl)-1H-indole-7-carboxamido)cyclopropyl)benzoic acid], the pIC50 is at least 7.00 against human EP4 (EP4R) and above 7.00 at human EP2 (PTGER2).

As for `C[C@H](NC(=O)c1cc(-c2ccc(F)cc2)cc2ccn(Cc3ccc(C(F)(F)F)cc3)c12)c1ccc(C(=O)O)cc1` [Example 50, (S)-4-(1-(5-(4-fluorophenyl)-1-(4-(trifluoromethyl)benzyl)-1H-indole-7-carboxamido)ethyl) benzoic acid], the pIC50 at human EP4 (EP4R) is at least 7.00; at human EP2 (PTGER2), above 7.00.

Turning to `C[C@H](NC(=O)c1cc(-c2ccccc2)cc2ccn(Cc3ccc(C(F)(F)F)cc3)c12)c1ccc(C(=O)O)cc1` [Example 51, (S)-4-(1-(5-phenyl-1-(4-(trifluoromethyl)benzyl)-1H-indole-7-carboxamido)ethyl) benzoic acid], the results for the pIC50 against human EP4 (EP4R) and against human EP2 (PTGER2) were at least 7.00 and above 7.00, respectively.

Turning to `C[C@H](NC(=O)c1cc(-c2cccc(C#N)c2)cc2ccn(Cc3ccc(C(F)(F)F)cc3)c12)c1ccc(C(=O)O)cc1` [Example 52, (S)-4-(1-(5-(3-cyanophenyl)-1-(4-(trifluoromethyl)benzyl)-1H-indole-7-carboxamido)ethyl) benzoic acid], the pIC50 was at least 7.00 against human EP4 (EP4R) and above 7.00 against human EP2 (PTGER2).

In the case of `O=C(O)c1ccc(CNC(=O)c2ccc(Nc3ccccc3)c3ccn(Cc4ccc(C(F)(F)F)cc4)c23)cc1` [Example 57, 4-((4-(phenylamino)-1-(4-(trifluoromethyl)benzyl)-1H-indole-7-carboxamido)methyl)benzoic acid], the pIC50 at human EP4 (EP4R) was 6.00 to 7.00; against human EP2 (PTGER2), above 7.00.

Turning to `O=C(O)c1ccc(CNC(=O)c2ccc(Nc3cc(F)cc(F)c3)c3ccn(Cc4ccc(C(F)(F)F)cc4)c23)cc1` [Example 69, 4-((4-((3,5-difluorophenyl)amino)-1-(4-(trifluoromethyl)benzyl)-1H-indole-7-carboxamido)methyl)benzoic acid], the values for the negative-log IC50 (pIC50) at human EP4 (EP4R) and against human EP2 (PTGER2) were 6.00 to 7.00 and above 7.00, respectively.

As for `C[C@H](NC(=O)c1ccc(Nc2ccccc2)c2ccn(Cc3ccc(C(F)(F)F)cc3)c12)c1ccc(C(=O)O)cc1` [Example 74, (S)-4-(1-(4-(phenylamino)-1-(4-(trifluoromethyl)benzyl)-1H-indole-7-carboxamido)ethyl)benzoic acid], the pIC50 against human EP4 (EP4R) is at least 7.00; against human EP2 (PTGER2), above 7.00.

On to `COc1cccc(-c2cc(C(=O)NCc3ccc(C(=O)O)cc3)c3c(ccn3Cc3ccc(C(F)(F)F)cc3)c2)c1` [Example 76, 4-((5-(3-methoxyphenyl)-1-(4-(trifluoromethyl)benzyl)-1H-indole-7-carboxamido)methyl)benzoic acid], for which the pIC50 at human EP4 (EP4R) was at least 7.00; against human EP2 (PTGER2), above 7.00.

In the case of `O=C(O)c1ccc(CNC(=O)c2cc(-c3cccnc3)cc3ccn(Cc4ccc(C(F)(F)F)cc4)c23)cc1` [Example 78, 4-((5-(pyridin-3-yl)-1-(4-(trifluoromethyl)benzyl)-1H-indole-7-carboxamido)methyl)benzoic acid], the figures for the pIC50 on human EP4 (EP4R) and against human EP2 (PTGER2) were at least 7.00 and above 7.00, respectively.

With `O=C(O)c1ccc(CNC(=O)c2cc(-c3ccncc3)cc3ccn(Cc4ccc(C(F)(F)F)cc4)c23)cc1` [Example 80, 4-((5-(pyridin-4-yl)-1-(4-(trifluoromethyl)benzyl)-1H-indole-7-carboxamido)methyl)benzoic acid], the pIC50 against human EP4 (EP4R) was at least 7.00; on human EP2 (PTGER2) it was above 7.00.

Consider `CC(C)(O)c1cccc(-c2cc(C(=O)NCc3ccc(C(=O)O)cc3)c3c(ccn3Cc3ccc(C(F)(F)F)cc3)c2)c1` [Example 85, 4-((5-(3-(2-hydroxypropan-2-yl)phenyl)-1-(4-(trifluoromethyl)benzyl)-1H-indole-7-carboxamido)methyl)benzoic acid], for which the results for the pIC50 on human EP4 (EP4R) and against human EP2 (PTGER2) were at least 7.00 and 6.00 to 7.00, respectively.

As for `O=C(O)c1ccc(CNC(=O)c2cc(-c3ccccc3F)cc3ccn(Cc4ccc(C(F)(F)F)cc4)c23)cc1` [Example 87, 4-((5-(2-fluorophenyl)-1-(4-(trifluoromethyl)benzyl)-1H-indole-7-carboxamido)methyl)benzoic acid], the results for the pIC50 at human EP4 (EP4R) and on human EP2 (PTGER2) were at least 7.00 and above 7.00, respectively.

On to `O=C(O)c1ccc(CNC(=O)c2cc(-c3ccc(F)cc3)cc3cnn(Cc4ccc(C(F)(F)F)cc4)c23)cc1` [Example 96, 4-((5-(4-fluorophenyl)-1-(4-(trifluoromethyl)benzyl)-1H-indazole-7-carboxamido)methyl)benzoic acid], for which the pIC50 on human EP4 (EP4R) is at least 7.00; on human EP2 (PTGER2), above 7.00.

On to `O=C(O)c1ccc(CNC(=O)c2cc(-c3ccccc3)cc3cnn(Cc4ccc(C(F)(F)F)cc4)c23)cc1` [Example 97, 4-((5-phenyl-1-(4-(trifluoromethyl)benzyl)-1H-indazole-7-carboxamido)methyl)benzoic acid], for which the pIC50 against human EP4 (EP4R) is at least 7.00; at human EP2 (PTGER2), above 7.00.

`C[C@H](NC(=O)c1cc(-c2ccccc2)cc2cnn(Cc3ccc(C(F)(F)F)cc3)c12)c1ccc(C(=O)O)cc1` [Example 100, (S)-4-(1-(5-phenyl-1-(4-(trifluoromethyl)benzyl)-1H-indazole-7-carboxamido)ethyl)benzoic acid]: the pIC50 on human EP4 (EP4R) was at least 7.00; at human EP2 (PTGER2) it was above 7.00.

In the case of `C[C@H](NC(=O)c1cc(-c2cc(F)cc(F)c2)cc2cnn(Cc3ccc(C(F)(F)F)cc3)c12)c1ccc(C(=O)O)cc1` [Example 101, (S)-4-(1-(5-(3,5-difluorophenyl)-1-(4-(trifluoromethyl)benzyl)-1H-indazole-7-carboxamido)ethyl)benzoic acid], the pIC50 against human EP4 (EP4R) was at least 7.00; against human EP2 (PTGER2), above 7.00.

For the molecule `O=C(O)c1ccc(CNC(=O)c2cc(-c3cc(F)cc(F)c3)cc3ccn(Cc4cccc(Cl)c4)c23)cc1` [Example 106, 4-((1-(3-chlorobenzyl)-5-(3,5-difluorophenyl)-1H-indole-7-carboxamido)methyl)benzoic acid], the pIC50 is at least 7.00 at human EP4 (EP4R) and above 7.00 against human EP2 (PTGER2).
